Laboratory results reported in BindingDB's records for doi:10.1021/jm9606608 (Boehringer Ingelheim (Canada), 1997).

target: T1, Dimer of Gag-Pol polyprotein [489-587] (Human immunodeficiency virus 1, UniProt P12497); test: Protease Inhibition Assay; details: pH 5.5; 37 °C
T1 construct: 489-587
Description: (§1) Sensitivity of HIV-1 protease activity to protease inhibitors was determined by a peptide substrate cleavage assay. Cleavage products and substrate were separated by reversed-phase HPLC on a Perkin-Elmer 3 X 3CR C8 column.

**Q.** CCC(CC)NC(=O)C[C@@H](C(=O)NC[C@@H](O)[C@H](Cc1ccccc1)NC(=O)[C@@H](NC(=O)c1ccc2ccccc2n1)C(C)O)C(C)(C)C (stereo partly drawn) [(2R)-2-tert-butyl-N-[(2R,3S)-2-hydroxy-3-[(2S,3R)-3-hydroxy-2-(quinolin-2-ylformamido)butanamido]-4-phenylbutyl]-N'-(pentan-3-yl)butanediamide] was tested. Which IC50 did it give?
**A.** 3.6 nM

**Q.** With CCC(CC)NC(=O)C[C@@H](C(=O)NC[C@@H](O)[C@H](Cc1ccccc1)NC(=O)[C@@H](NC(=O)c1cnc2ccccc2n1)C(C)O)C(C)(C)C (stereo partly drawn) [(2R)-2-tert-butyl-N-[(2R,3S)-2-hydroxy-3-[(2S,3R)-3-hydroxy-2-(quinoxalin-2-ylformamido)butanamido]-4-phenylbutyl]-N'-(pentan-3-yl)butanediamide] as the compound, how does the IC50 read?
**A.** 3 nM

**Q.** CC(C)[C@H](NC(=O)OCc1ccccc1)C(=O)N[C@@H](Cc1ccccc1)[C@H](O)CNC(=O)C1CCCCC1C(=O)NC(C)(C)C (stereo partly drawn) [benzyl N-[(1S)-1-{[(2S,3R)-4-{[2-(tert-butylcarbamoyl)cyclohexyl]formamido}-3-hydroxy-1-phenylbutan-2-yl]carbamoyl}-2-methylpropyl]carbamate] was tested. Which IC50 did it give?
**A.** 140 nM

**Q.** With CCC(CC)NC(=O)C[C@@H](C(=O)NC[C@@H](O)[C@H](Cc1ccccc1)NC(=O)[C@@H](NC(=O)OCc1ccccc1)C(C)O)C(C)(C)C (stereo partly drawn) [benzyl N-[(1S,2S)-1-{[(2S,3R)-4-[(2R)-2-tert-butyl-N-(pentan-3-yl)butanediamido]-3-hydroxy-1-phenylbutan-2-yl]carbamoyl}-2-hydroxypropyl]carbamate] as the compound, how does the IC50 read?
**A.** 8.2 nM

target: T2, Dimer of Gag-Pol polyprotein [514-612] (Human immunodeficiency virus 2, UniProt P04584); test: Protease Inhibition Assay; details: pH 5.5; 37 °C
T2 construct: 514-612
T2 sequence (P04584 whole entry): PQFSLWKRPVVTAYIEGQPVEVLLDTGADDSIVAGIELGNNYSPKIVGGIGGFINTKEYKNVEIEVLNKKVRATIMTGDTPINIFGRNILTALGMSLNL
Description: as §1

**Q.** Which IC50 does the source give for CCC(CC)NC(=O)C[C@@H](C(=O)NC[C@@H](O)[C@H](Cc1ccccc1)NC(=O)[C@@H](NC(=O)c1ccc2ccccc2n1)C(C)C)C(C)(C)C [(2R)-2-tert-butyl-N-[(2R,3S)-2-hydroxy-3-[(2S)-3-methyl-2-(quinolin-2-ylformamido)butanamido]-4-phenylbutyl]-N'-(pentan-3-yl)butanediamide] here?
**A.** 42 nM

**Q.** CCC(CC)NC(=O)C[C@@H](C(=O)NC[C@@H](O)[C@H](Cc1ccccc1)NC(=O)[C@@H](NC(=O)c1cnc2ccccc2n1)C(C)C)C(C)(C)C [(2R)-2-tert-butyl-N-[(2R,3S)-2-hydroxy-3-[(2S)-3-methyl-2-(quinoxalin-2-ylformamido)butanamido]-4-phenylbutyl]-N'-(pentan-3-yl)butanediamide] was tested. Which IC50 did it give?
**A.** 38 nM

**Q.** Which IC50 does the source give for CCC(CC)NC(=O)C[C@@H](C(=O)NC[C@@H](O)[C@H](Cc1ccccc1)NC(=O)[C@@H](NC(=O)c1cnc2ccccc2n1)C(C)O)C(C)(C)C (stereo partly drawn) [(2R)-2-tert-butyl-N-[(2R,3S)-2-hydroxy-3-[(2S,3R)-3-hydroxy-2-(quinoxalin-2-ylformamido)butanamido]-4-phenylbutyl]-N'-(pentan-3-yl)butanediamide] here?
**A.** 135 nM

**Q.** Which IC50 does the source give for CCC(CC)NC(=O)C[C@@H](C(=O)NC[C@@H](O)[C@H](Cc1ccccc1)NC(=O)[C@H](CC(N)=O)NC(=O)c1ccc2ccccc2n1)C(C)(C)C [(2S)-N-[(2S,3R)-4-[(2R)-2-tert-butyl-N-(pentan-3-yl)butanediamido]-3-hydroxy-1-phenylbutan-2-yl]-2-(quinolin-2-ylformamido)butanediamide] here?
**A.** 6.7 nM

**Q.** With CCC(CC)NC(=O)C[C@@H](C(=O)NC[C@@H](O)[C@H](Cc1ccccc1)NC(=O)[C@H](CC(N)=O)NC(=O)c1cnc2ccccc2n1)C(C)(C)C [(2S)-N-[(2S,3R)-4-[(2R)-2-tert-butyl-N-(pentan-3-yl)butanediamido]-3-hydroxy-1-phenylbutan-2-yl]-2-(quinoxalin-2-ylformamido)butanediamide] as the compound, how does the IC50 read?
**A.** 6.3 nM
